This is an account of results in DBAASP.

Each structure is given as a SMILES string. ≈ marks a conversion by molar mass, not a printed value. Bounds are passed on as bounds.

A word on the MIC: it is the lowest concentration that inhibits growth of the organism. A lower MIC goes with greater potency.

Some test systems named below: Bacillus subtilis; Escherichia coli; Klebsiella pneumoniae; Micrococcus luteus; Proteus mirabilis; Pseudomonas aeruginosa; Salmonella typhimurium; Shigella dysenteriae; Staphylococcus aureus; Candida albicans; Saccharomyces cerevisiae; Serratia marcescens; Bacillus cereus; Leuconostoc lactis; Listeria innocua; Pasteurella multocida; Streptococcus uberis.
Assay in all cases: ≥ marks a high value that may be exact or a test limit, other limits are often not marked, values filed in µg/mL are converted to µM
The subject of experiment [1] is Staphylococcus epidermidis.

Regarding `CC(C)C[C@H](NC(=O)[C@H](C)NC(=O)CNC(=O)[C@H](CC(C)C)NC(=O)[C@@H](N)Cc1ccccc1)C(=O)N[C@@H](Cc1ccccc1)C(=O)N[C@@H](CCCCN)C(=O)N[C@H](C(=O)N[C@@H](C)C(=O)N[C@@H](CO)C(=O)N[C@@H](CCCCN)C(=O)O)C(C)C` [FLGALFKVASK], the MIC is not below 169 µM with Bacillus subtilis; more than 169 µM against Escherichia coli; more than 169 µM against Klebsiella pneumoniae; not below 169 µM with Micrococcus luteus; not below 169 µM against Proteus mirabilis; more than 169 µM in the experiment with Pseudomonas aeruginosa. Further, the MIC in the experiment with Salmonella typhimurium is not below 169 µM; against Shigella dysenteriae it was not below 169 µM; against Staphylococcus aureus it was more than 169 µM; in experiment [1], not below 169 µM.
With `CC(C)C[C@H](NC(=O)CNC(=O)[C@H](CC(C)C)NC(=O)[C@@H](N)Cc1ccccc1)C(=O)N[C@@H](CC(C)C)C(=O)N[C@@H](Cc1ccccc1)C(=O)N[C@@H](CCCCN)C(=O)N[C@H](C(=O)N[C@@H](C)C(=O)N[C@@H](CO)C(=O)N[C@@H](CCCCN)C(=O)O)C(C)C` [FLGLLFKVASK], the minimum inhibitory concentration (MIC) in the experiment with Bacillus subtilis was not below 40.9 µM; against Escherichia coli, 164 µM (≈ 200 µg/mL); with Klebsiella pneumoniae, 81.8 µM (≈ 100 µg/mL); in the experiment on Micrococcus luteus, 10.2 µM (≈ 12.5 µg/mL); against Proteus mirabilis it was not below 164 µM; with Pseudomonas aeruginosa, more than 164 µM. The MIC against Salmonella typhimurium is not below 164 µM; with Shigella dysenteriae, not below 164 µM; against Staphylococcus aureus, 20.4 µM (≈ 25 µg/mL); in experiment [1] it was not below 40.9 µM.
Consider `CC(C)C[C@H](NC(=O)[C@@H](NC(=O)[C@H](CCCCN)NC(=O)[C@H](CO)NC(=O)[C@H](C)NC(=O)[C@@H](NC(=O)[C@H](CCCCN)NC(=O)[C@H](Cc1ccccc1)NC(=O)[C@H](CC(C)C)NC(=O)[C@H](C)NC(=O)[C@H](CCCCN)NC(=O)[C@H](CC(C)C)NC(=O)[C@@H](N)Cc1ccccc1)C(C)C)C(C)C)C(=O)O` [FLKALFKVASKVL], for which the minimum inhibitory concentration (MIC) is 8.54 µM (≈ 12.5 µg/mL) with Bacillus subtilis; 4.3 µM (≈ 6.3 µg/mL) in the experiment on Escherichia coli; 2.12 µM (≈ 3.1 µg/mL) in the experiment with Klebsiella pneumoniae; 2.12 µM (≈ 3.1 µg/mL) against Micrococcus luteus; not below 137 µM with Proteus mirabilis; 17.1 µM (≈ 25 µg/mL) in the experiment with Pseudomonas aeruginosa. Also, the MIC against Salmonella typhimurium was 8.54 µM (≈ 12.5 µg/mL); in the experiment with Shigella dysenteriae it was 4.3 µM (≈ 6.3 µg/mL); against Staphylococcus aureus, 2.12 µM (≈ 3.1 µg/mL); in experiment [1], 2.12 µM (≈ 3.1 µg/mL).
`CC[C@H](C)[C@H](NC(=O)CN)C(=O)N[C@@H](CC(C)C)C(=O)N[C@@H](CC(=O)O)C(=O)N[C@H](C(=O)N[C@@H](CC(C)C)C(=O)N[C@@H](CCCCN)C(=O)N[C@@H](CCC(N)=O)C(=O)N[C@@H](Cc1ccccc1)C(=O)N[C@@H](C)C(=O)N[C@@H](CCCCN)C(=O)NCC(=O)N[C@H](C(=O)NCC(=O)N[C@@H](CCCCN)C(=O)N[C@@H](CC(=O)O)C(=O)N[C@@H](CC(C)C)C(=O)N[C@H](C(=O)N[C@@H](CCCCN)C(=O)NCC(=O)N[C@@H](C)C(=O)N[C@@H](C)C(=O)N[C@@H](CCC(N)=O)C(=O)NCC(=O)N[C@H](C(=O)N[C@@H](CC(C)C)C(=O)N[C@@H](CO)C(=O)N[C@H](C(=O)O)[C@@H](C)O)C(C)C)C(C)C)C(C)C)[C@@H](C)O` [GILDTLKQFAKGVGKDLVKGAAQGVLST]: the minimal inhibitory concentration (MIC) was 17.8 µM (≈ 50 µg/mL) against Bacillus subtilis; more than 35.5 µM against Candida albicans; 8.88 µM (≈ 25 µg/mL) in the experiment on Escherichia coli; 0.888 µM (≈ 2.5 µg/mL) against Micrococcus luteus; not below 35.5 µM in the experiment on Proteus mirabilis; 17.8 µM (≈ 50 µg/mL) against Pseudomonas aeruginosa. Further, the MIC with Saccharomyces cerevisiae was 8.88 µM (≈ 25 µg/mL); in the experiment with Salmonella typhimurium it was 26.6 µM (≈ 75 µg/mL); in the experiment on Serratia marcescens, not below 35.5 µM; against Shigella dysenteriae, 8.88 µM (≈ 25 µg/mL); in experiment [1], 17.8 µM (≈ 50 µg/mL).
As to `CC[C@H](C)[C@H](NC(=O)[C@H](CC(=O)O)NC(=O)[C@H](Cc1ccccc1)NC(=O)[C@H](CC(C)C)NC(=O)CN)C(=O)N[C@H](C(=O)N[C@@H](CCCCN)C(=O)N[C@@H](CCCCN)C(=O)N[C@H](C(=O)N[C@@H](C)C(=O)N[C@@H](CO)C(=O)N[C@H](C(=O)N[C@H](C(=O)NCC(=O)NCC(=O)N[C@@H](CC(C)C)C(N)=O)[C@@H](C)CC)C(C)C)C(C)C)[C@@H](C)CC` [GLFDIIKKVASVIGGL], the MIC in the experiment with Bacillus cereus is 15.3 µM (≈ 25 µg/mL); with Escherichia coli, more than 61.4 µM; against Leuconostoc lactis, 3.68 µM (≈ 6 µg/mL); against Listeria innocua, 15.3 µM (≈ 25 µg/mL); with Micrococcus luteus it was 7.36 µM (≈ 12 µg/mL); against Pasteurella multocida, not below 61.4 µM. In addition, the minimum inhibitory concentration (MIC) against Staphylococcus aureus came to 15.3 µM (≈ 25 µg/mL); in experiment [1], 15.3 µM (≈ 25 µg/mL); in the experiment with Streptococcus uberis it was 7.36 µM (≈ 12 µg/mL).
Turning to `CC[C@H](C)[C@H](NC(=O)[C@H](CCCCN)NC(=O)[C@H](CO)NC(=O)[C@H](C)NC(=O)[C@@H](NC(=O)[C@H](CCCCN)NC(=O)[C@H](CCCCN)NC(=O)[C@@H](NC(=O)[C@@H](NC(=O)[C@H](CC(=O)O)NC(=O)[C@H](Cc1ccccc1)NC(=O)[C@H](CC(C)C)NC(=O)CN)C(C)C)[C@@H](C)CC)C(C)C)C(=O)NCC(=O)NCC(=O)N[C@@H](CC(C)C)C(N)=O` [GLFDVIKKVASKIGGL], the MIC in the experiment with Bacillus cereus was not below 60.8 µM; in the experiment on Escherichia coli, 60.8 µM (≈ 99.9 µg/mL); in the experiment on Leuconostoc lactis, 7.29 µM (≈ 12 µg/mL); in the experiment on Listeria innocua it was 30.4 µM (≈ 50 µg/mL); in the experiment with Micrococcus luteus it was not below 60.8 µM; against Pasteurella multocida, not below 60.8 µM. The MIC is more than 60.8 µM in the experiment with Staphylococcus aureus, not below 60.8 µM in [1] and not below 60.8 µM against Streptococcus uberis.
On to `CC[C@H](C)[C@H](NC(=O)[C@@H](NC(=O)[C@H](CO)NC(=O)[C@H](C)NC(=O)[C@@H](NC(=O)[C@H](CCCCN)NC(=O)[C@H](CCCCN)NC(=O)[C@@H](NC(=O)[C@@H](NC(=O)[C@H](CC(=O)O)NC(=O)[C@H](Cc1ccccc1)NC(=O)[C@H](CC(C)C)NC(=O)CN)C(C)C)[C@@H](C)CC)C(C)C)C(C)C)C(=O)NCC(=O)NCC(=O)N[C@@H](C)C(N)=O` [GLFDVIKKVASVIGGA], for which the MIC in the experiment on Bacillus cereus was not below 63.5 µM; against Escherichia coli it was more than 63.5 µM; with Leuconostoc lactis it was 15.9 µM (≈ 25 µg/mL); against Listeria innocua it was not below 63.5 µM; with Micrococcus luteus it was not below 63.5 µM; in the experiment with Pasteurella multocida, not below 63.5 µM. Also, the MIC is more than 63.5 µM against Staphylococcus aureus, not below 63.5 µM in experiment [1] and not below 63.5 µM with Streptococcus uberis.
Regarding `CC[C@H](C)[C@H](NC(=O)[C@@H](NC(=O)[C@H](CO)NC(=O)[C@H](C)NC(=O)[C@@H](NC(=O)[C@H](CCCCN)NC(=O)[C@H](CCCCN)NC(=O)[C@@H](NC(=O)[C@@H](NC(=O)[C@H](CC(=O)O)NC(=O)[C@H](Cc1ccccc1)NC(=O)[C@H](CC(C)C)NC(=O)CN)C(C)C)[C@@H](C)CC)C(C)C)C(C)C)C(=O)NCC(=O)N[C@@H](CC(C)C)C(=O)N[C@@H](C)C(=O)N[C@@H](CO)C(=O)N1CCC[C@H]1C(=O)O` [GLFDVIKKVASVIGLASP], the MIC is not below 55.1 µM against Bacillus cereus; more than 55.1 µM in the experiment with Escherichia coli; 27.6 µM (≈ 50 µg/mL) against Leuconostoc lactis; not below 55.1 µM with Listeria innocua; not below 55.1 µM with Micrococcus luteus; not below 55.1 µM against Pasteurella multocida. The MIC against Staphylococcus aureus is more than 55.1 µM; in experiment [1], not below 55.1 µM; in the experiment with Streptococcus uberis, not below 55.1 µM.
Take `CC[C@H](C)[C@H](NC(=O)[C@H](CO)NC(=O)CNC(=O)[C@@H](NC(=O)[C@H](CC(C)C)NC(=O)CN)[C@@H](C)CC)C(=O)NCC(=O)N[C@@H](CCCCN)C(=O)N[C@@H](C)C(=O)N[C@@H](CC(C)C)C(=O)NCC(=O)NCC(=O)N[C@@H](CC(C)C)C(=O)N[C@@H](CC(C)C)C(=O)N[C@H](C(=O)N[C@@H](CC(=O)O)C(=O)N[C@H](C(=O)N[C@@H](CC(C)C)C(=O)N[C@@H](CCCCN)C(=O)N1CCC[C@H]1C(=O)N[C@@H](CCCCN)C(=O)N[C@@H](CC(C)C)C(=O)N[C@@H](CCC(N)=O)C(=O)N[C@@H](C)C(=O)N[C@@H](C)C(=O)N[C@@H](CO)C(=O)O)C(C)C)C(C)C` [GLIGSIGKALGGLLVDVLKPKLQAAS]: the MIC in the experiment with Bacillus cereus was not below 39.7 µM; in the experiment on Escherichia coli, more than 39.7 µM; against Leuconostoc lactis it was not below 39.7 µM; in the experiment with Listeria innocua, not below 39.7 µM; against Micrococcus luteus, not below 39.7 µM; with Pasteurella multocida, not below 39.7 µM. The MIC was more than 39.7 µM against Staphylococcus aureus, not below 39.7 µM in experiment [1] and not below 39.7 µM against Streptococcus uberis.
